One data set deals with Aphidius rhopalosiphi. Particulars: not reported.
The test system of another data set is Apis mellifera. Particulars: acute; duration: 48 hours; dermal; mortality.
For a further data set, the system named is Canidae. Particulars: chronic, oral, Dog Other, clinical signs.
In a further data set the test system is Daphnia magna. Particulars: chronic/long-term; duration: 21 days; reproduction.

`CC[C@H](C)[C@H]1O[C@]2(C=C[C@@H]1C)C[C@@H]1C[C@@H](C/C=C(\C)[C@@H](O[C@H]3C[C@H](OC)[C@@H](O[C@H]4C[C@H](OC)[C@@H](O)[C@H](C)O4)[C@H](C)O3)[C@@H](C)/C=C/C=C3\CO[C@@H]4[C@H](O)C(C)=C[C@@H](C(=O)O1)[C@]34O)O2.CO[C@H]1C[C@H](O[C@H]2[C@H](C)O[C@@H](O[C@@H]3/C(C)=C/C[C@@H]4C[C@@H](C[C@]5(C=C[C@H](C)[C@@H](C(C)C)O5)O4)OC(=O)[C@@H]4C=C(C)[C@@H](O)[C@H]5OC/C(=C\C=C\[C@@H]3C)[C@]54O)C[C@@H]2OC)O[C@@H](C)[C@@H]1O` [Abamectin]: the LD50 with Anas platyrhynchos (acute, oral, unspecified, mortality) is at most 77 mg/kg-day; in the data set on Apis mellifera it was 0.0022 µg/piece; in the data set with Rattus norvegicus (acute, oral, mortality), 8.7 mg/kg-day. Further, the NOEC with Anas platyrhynchos (reproductive, M) is 1.33 mg/kg-day; with Daphnia magna it was 1e-05 mg/L; with Oncorhynchus mykiss (chronic/long-term, duration: 28 days) it was 0.00052 mg/L; with Rattus norvegicus (chronic), 0.12 mg/kg-day; in the data set on Tagia sp. (chronic/long-term), above 0.72 mg/kg. Also, the LC50 in the data set on Anas platyrhynchos (short-term, oral, feed, mortality) stood at 48.6 mg/kg-day; with Oncorhynchus mykiss (acute, duration: 96 hours, mortality), 3.6 ng/mL; with Tagia sp. (acute, duration: 14 days, mortality), 33 mg/kg. Moreover, the LEL in the data set with Aphidius rhopalosiphi (mortality) and in the data set on Aphidius rhopalosiphi (reproduction) was 4.32 g/ha each time. Moreover, the NOAEL in the data set on Canidae (duration: 18 weeks) was 0.25 mg/kg-day; with Canidae (duration: 53 weeks), 0.25 mg/kg-day; with Rattus norvegicus (acute, clinical signs), 0.5 mg/kg-day.

The term NOAEL denotes the highest dose or exposure tested at which no adverse effect was seen.
